Converted amounts (≈) assume the structure as drawn.
Settings: not given

| SMILES | logP | solubility [mM] |
| --- | --- | --- |
| COC(=O)c1ccccc1S(N)(=O)=O | 0.01 |  |
| N#CCCN(N)c1nc2cc(Cl)ccc2o1 | 1.72 |  |
| O=[N+]([O-])c1ccc(O)cc1C(F)(F)F |  | 24.1 (≈ 5000 µg/mL) |
| CCn1cc(C(=O)O)c(=O)c2cc(F)c(N3CCNC(C)C3)cc21 (stereo not given) | 0.34 |  |
| FC(F)(F)c1cccc(Cn2cncn2)c1 | 1.74 |  |
| CN(C)c1ccc(C=NNC(=N)N)cc1 | 0.28 |  |
| C[C@H](CCC(=O)NCC(=O)O)[C@H]1CC[C@H]2[C@@H]3[C@H](O)C[C@@H]4C[C@H](O)CC[C@]4(C)[C@H]3C[C@H](O)[C@]12C | 1.65 |  |
| CCC1(C2=CCCCCC2)C(=O)NC(=O)N(C)C1=O (stereo not given) | 2.82 |  |
| NC(=O)c1ccccc1NCCO | -0.05 |  |
| O=C1CCC(c2cccnc2)N1 (stereo not given) | -0.3 |  |
| CCn1cc(C(=O)NC(C(=O)OC)C(C)C)c(=O)c2ccc(C)nc21 (stereo not given) | 3.61 |  |
| Cc1nc2ccc([N+](=O)[O-])cc2[nH]1 | 1.94 |  |
| CC(=O)NCCc1ccccc1 | 1.19 |  |
| CC(C)(C)c1ccc2oc(N(N)CCC#N)nc2c1 | 2.82 |  |
| Nc1ccc2c(c1)Cc1cc(Br)ccc1-2 | 3.92 |  |
| Cc1cccc(C)c1NC(=O)c1cc(S(N)(=O)=O)c(Cl)cc1O | 2.19 |  |
| CSc1ccc2oc(N(N)CCC#N)nc2c1 | 1.5 |  |
| CCC(O)(C(=O)O)c1ccc(CC(C)C)cc1 (stereo not given) | 3.37 |  |
| CCCCC(OC(Cc1ccccc1)C(=O)N1CCC(OCOC)CC1)C(=O)NC(CC1CCCCC1)C(O)CC(C(=O)NCCNc1n[nH]c(N)n1)C(C)C (stereo not given) | 4 |  |
| c1ccc2cc3c(cc2c1)-c1cccc2cccc-3c12 | 6.11 |  |
| COC(=O)C1CC(=O)N(C)C1 (stereo not given) | -0.74 |  |
| c1ccc2c(c1)ccc1cc3ccc4ccccc4c3nc12 | 6.45 |  |
| COC(=O)n1c(-c2cscn2)nc2ccccc21 | 2.05 |  |
| CN(C)c1ccc(N=c2snc3sc(S(N)(=O)=O)nn23)cc1 | 2.32 |  |
| COCOCCn1cnc2c(=N)n(C)c(=O)[nH]c21 | -1.52 |  |
| Cc1ccccc1NCc1cnc2nc(N)nc(N)c2c1C | 1.98 |  |

Same assay, conditions: 20 °C

| SMILES | solubility [mM] |
| --- | --- |
| CC(O)CN(CC(C)O)CC(C)O (stereo not given) | 4340 (≈ 830000 µg/mL) |
| C/C=C/CCC | 0.594 (≈ 50 µg/mL) |
| ClC(Br)Br | 12.5 (≈ 2600 µg/mL) |
| CCNc1nc(NCC)nc(OC)n1 | 16.2 (≈ 3200 µg/mL) |
| COCc1cnc(C2=NC(C)(C(C)C)C(=O)N2)c(C(=O)O)c1 (stereo not given) | 14.5 (≈ 4410 µg/mL) |
| N#Cc1cccnc1 | 1300 (≈ 135000 µg/mL) |
| CC(C)OC(=O)c1cc(-c2nn(C)c(C(F)(F)F)c2Br)c(F)cc1Cl | 0.000119 (≈ 0.053 µg/mL) |
| CCOC(=O)C(O)(c1ccc(Cl)cc1)c1ccc(Cl)cc1 | 0.0351 (≈ 11.4 µg/mL) |

Same assay, conditions: 23.0 °C

| SMILES | log10 OH rate constant (cm³/molecule/s) |
| --- | --- |
| CC1=CCCC(C)=CCC(C)(C)C=CC1 | -9.54 |

Same assay, conditions: 24 °C

| SMILES | solubility [mM] |
| --- | --- |
| CCCN(CCC)N=O | 99.9 (≈ 13000 µg/mL) |

Same assay, conditions: 25 °C

| SMILES | solubility [mM] |
| --- | --- |
| O=[N+]([O-])c1ccc(Nc2ccc(O)cc2)c([N+](=O)[O-])c1 | 0.0036 (≈ 0.99 µg/mL) |
| CC(F)(F)Cl | 13.9 (≈ 1400 µg/mL) |
| Cc1ccc(CO)cc1 | 63.1 (≈ 7710 µg/mL) |
| CCC(C)=NO | 1150 (≈ 100000 µg/mL) |
| OCc1cccc2ccccc12 | 18 (≈ 2850 µg/mL) |
| COC(=O)COc1ccc(Cl)cc1Cl | 1.1 (≈ 258 µg/mL) |
| ClCOCCl | 191 (≈ 22000 µg/mL) |
| O=[N+]([O-])c1cccc2ccccc12 | 0.053 (≈ 9.18 µg/mL) |
| CCCc1ccccc1 | 0.434 (≈ 52.2 µg/mL) |
| Oc1cc(Cl)cc(Cl)c1 | 27.6 (≈ 4500 µg/mL) |
| c1ccc2nc(-c3ccc4ccccc4n3)ccc2c1 | 0.00398 (≈ 1.02 µg/mL) |
| CCOP(=O)(N=C1SCCS1)OCC | 2.55 (≈ 650 µg/mL) |
| Nc1ccc(-c2ccc(N)c(Cl)c2)cc1Cl | 0.0122 (≈ 3.1 µg/mL) |
| Oc1ccc(N=Nc2ccc(N=Nc3ccccc3)c3ccccc23)cc1 | 0.000979 (≈ 0.345 µg/mL) |
| O=C(Oc1ccccc1)c1ccccc1C(=O)Oc1ccccc1 | 0.000258 (≈ 0.082 µg/mL) |
| Nc1ccccc1Cl | 64 (≈ 8160 µg/mL) |
| O=C(O)CC1CCCCC1 | 20.3 (≈ 2880 µg/mL) |
| CC(C)(C#N)/N=N/C(C)(C)C#N | 2.13 (≈ 350 µg/mL) |
| COCCOC(=O)c1ccccc1C(=O)OCCOC | 30.1 (≈ 8500 µg/mL) |
| CCOC=O | 1190 (≈ 88200 µg/mL) |
| CNC(=O)Oc1cc(C)cc(C(C)C)c1 | 0.439 (≈ 91 µg/mL) |
| CCC(Cl)CC | 2.34 (≈ 249 µg/mL) |

Same assay, conditions: 25.0 °C

| SMILES | log10 OH rate constant (cm³/molecule/s) |
| --- | --- |
| COC(F)(C(F)(F)F)C(F)(F)F | -13.8 |
| CC(C)CC(=O)CC(C)C | -10.6 |
| CCC(C)(C)OC | -11.3 |
| O=CC(F)(F)F | -12.2 |
| O=CC(F)(F)Cl | -12.1 |
| CC(F)(Cl)Cl | -14.2 |
| CCOCC=O | -10.8 |
| OC(C(F)(F)F)C(F)(F)F | -13.6 |
| FC(F)(F)COCC(F)(F)F | -12.8 |
| COC(F)(F)C(F)(F)F | -13.9 |
| C=C(C)C(CC=O)CCC(C)=O (stereo not given) | -9.96 |
| CC(=O)O[C@@H]1CC2CCC1(C)C2(C)C (stereo not given in full) | -10.9 |
| COC(F)(F)C(F)(F)C(F)(F)F | -13.9 |
| CCC(CC)(CC)CC | -11.3 |

Same assay, conditions: 27 °C

| SMILES | solubility [mM] |
| --- | --- |
| Cc1c2ccccc2cc2ccc3ccccc3c12 | 0.000272 (≈ 0.066 µg/mL) |

Same assay, conditions: 27.0 °C

| SMILES | log10 OH rate constant (cm³/molecule/s) |
| --- | --- |
| CCC(=O)NC | -11.1 |
| CC1=CC(=O)C=CC1=O | -10.6 |
